One assay concerns Z-138 cell line. In words: Z-138 Proliferation Assay (Cell Titer Glo, 5 days). As to conditions: Z-138 cells. Format: cell-based. An excerpt: RPMI/Glutamax medium, penicillin-streptomycin, heat inactivated fetal bovine serum were purchased from Life Technologies, Grand Island, N.Y., USA. V-bottom polypropylene 384-well plates were purchased from Greiner Bio-One, Monroe, N.C., USA. Cell culture 384-well white opaque plates were purchased from Perkin Elmer, Waltham, Mass., USA. Cell-Titer Glo® was purchased from Promega Corporation, Madison, Wis., USA. SpectraMax M5 plate reader was purchased from Molecular Devices LLC, Sunnyvale, Calif., USA.
A compound source plate was prepared by performing triplicate nine-point 3-fold serial dilutions in DMSO, beginning at 10 mM (final top concentration of compound in the assay was 20 μM and the DMSO was 0.2%). A 100 nL aliquot from the compound stock plate was added to its respective well in the cell plate. […] Luminescence was read in the SpectraMax M5 microplate reader. The concentration of compound inhibiting cell viability by 50% was determined using a 4-parametric fit of the normalized dose response curves.
(ATP-based viability assays read luminescence as a measure of living cells.)

For assay [1], the system named is symmetric di-methyl arginine in Z-138 cells. The assay is described as follows: Z-138 Methylation Assay (In Cell Western for symmetric di-methyl arginine and DNA content). The format is cell-based. As to conditions: read-out: ICW EC50. The source says: [formula] [formula] Where top and bottom are the normally allowed to float, but may be fixed at 100 or 0 respectively in a 3-parameter fit. The Hill Coefficient normally allowed to float but may also be fixed at 1 in a 3-parameter fit. Y is the % inhibition and X is the compound concentration.
RPMI/Glutamax medium, penicillin-streptomycin, heat inactivated fetal bovine serum, and D-PBS were purchased from Life Technologies, Grand Island, N.Y., USA. Odyssey blocking buffer, 800 CW goat anti-rabbit IgG (H+L) antibody, and Licor Odyssey infrared scanner were purchased from Licor Biosciences, Lincoln, Nebr., USA. Symmetric di-methyl arginine antibody was purchased from EMD Millipore, Billerica, Mass., USA. 16% Paraformaldehyde was purchased from Electron Microscopy Sciences, Hatfield, Pa., USA. […]
First, the ratio for each well was determined by:
Each plate included fourteen control wells of DMSO only treatment (minimum inhibition) as well as fourteen control wells for maximum inhibition treated with 3 μM of a reference compound (Background wells). The average of the ratio values for each control type was calculated and used to determine the percent inhibition for each test well in the plate. […] Percent inhibition was determined and IC50 curves were generated using triplicate wells per concentration of compound.

We go through one molecule from patent publication US10980794B2, “PRMT5 inhibitors and uses thereof” (Epizyme, Inc., priority 2012, dated 2021).

Turning to `CN(C[C@H](O)CN1CCc2ccccc2C1)C(=O)c1cc(NC2CCOCC2)ncn1` [Compound 232], the EC50 was 1000 to 10000 nM in the assay on Z-138 cell line and 101 to 1000 nM in assay [1].

For orientation: EC50 means the concentration giving half of the maximal effect.
